Reference: patent US7742877B1, “Methods, apparatus and computer program products for formulating culture media” (Becton, Dickinson & Company, priority 1999, dated 2010)

Assays:
[1] = tested on: mammalian hybridoma cells producing and secreting antibodies; test: Antibody production by hybridoma cells cultured in medium containing a test peptide (nearest neighbor example, model data); type: cell-based; details: for Observed Activity (antibody production): candidate peptides, (hypothetical) biological activities; for Biol. Act. (antibody production): training set peptide added to hybridoma culture medium, model data
Text: One particular, and preferred, method of identifying compounds based on a distance function is nearest neighbor analysis. This method can be illustrated using the following simplified example with model data.
According to this illustrative example, the present invention can be used to identify a peptide as a culture medium component, e.g., for mammalian hybridoma cells producing and secreting antibodies. In particular, it is desirable to identify peptides, which when added to culture medium, will promote antibody production by hybridoma cells at a level greater than a test requirement. Four test peptides (Asp-Lys-Ala-His (SEQ. ID NO:23), Asp-Trp-Pro-Ala (SEQ. ID NO:24), Glu-Ser-Met-His (SEQ. ID NO:25), Gly-Val-Asn-Glu (SEQ. ID NO:26); i.e., a training set) may be selected from a peptide library as described above with respect to the QSAR example. Values to describe the various parameters of the peptides, for example, hydrophobicity (i.e., mlogp), molecular weight, and total charge may be calculated for each peptide (Table 5). Each peptide may be added to hybridoma culture medium and antibody production (i.e., biological activity) may be measured for the cells cultured in each culture medium (values shown in Table 5).
The peptides in the candidate set will then be assigned predicted indicia of the property based the closest peptide in the training set (Table 9).

[2] = tested on: bacterial cells genetically engineered to produce a heterologous protein of interest; test: Protein production by bacterial cells grown in culture medium containing a test peptide (QSAR example, exemplary data); type: cell-based; details: peptide included in culture medium of bacterial cells; exemplary (hypothetical) data
Text: The present invention may be used to identify a peptide to include as a component of a culture medium. The culture medium may be used to culture bacterial cells genetically engineered to produce a heterologous protein of interest. Accordingly, it would be desirable to identify a peptide which when included in a culture medium will enhance protein production by bacterial cells grown in the culture medium (i.e., to satisfy a test requirement).
In this example, eight test peptides are selected from a tetrapeptide library: Asp-Lys-Ala-His (SEQ. ID. NO:23), Asp-Trp-Pro-Ala (SEQ. ID. NO:24), Glu-Ser-Met-His (SEQ. ID. NO:25), Gly-Val-Asn-Glu (SEQ. ID. NO:26), His-Glu-Asp-Val (SEQ. ID. NO:27), Glu-Thr-Gly-Ser (SEQ. ID. NO:28), His-Tyr-Gly-Val (SEQ. ID. NO:29, and Asp-Phe-Gly-Val (SEQ. ID. NO:30); Table 3). The test peptides may be selected from the library by any means known in the art. The values for three parameters (molecular weight, total charge, and mlogp, i.e., hydrophobicity) may be determined for each of the eight peptides. The indicia of the property, in this example a particular biological activity (i.e., protein production), may be determined for the eight peptides as well.

| Substance | Observed Activity (antibody production) [1] | Biol. Act. (protein production) [2] | Biol. Act. (antibody production) [1] |
| --- | --- | --- | --- |
| Asp-Phe-Gly-Val (DFGV) | 22.0 | 22.0 |  |
| Asp-Trp-Pro-Ala (DWPA) |  | 25.0 | 25.0 |
| Asp-Lys-Ala-His (DKAH) |  | 15.0 | 15.0 |
| His-Tyr-Gly-Val (HYGV) | 23.6 | 23.6 |  |
| Gly-Val-Asn-Glu (GVNE) |  | 14.4 | 14.4 |
| Glu-Thr-Gly-Ser (ETGS) | 10.2 | 10.2 |  |
| His-Glu-Asp-Val (HEDV) | 18.5 | 18.5 |  |
| Glu-Ser-Met-His (ESMH) |  | 19.3 | 19.3 |
